Laboratory results reported in publication PMC7997411, “Discovery and Optimization of Selective Inhibitors of Meprin α (Part II)” (Pharmaceuticals, 2021).

What was measured:
ADAM10 = target: T1, ADAM10 (Homo sapiens, UniProt O14672); experiment: ADAM10 assay; format: biochemical
T1 construct: purchased R&D Systems 936-AD
T1 sequence (O14672 214-748): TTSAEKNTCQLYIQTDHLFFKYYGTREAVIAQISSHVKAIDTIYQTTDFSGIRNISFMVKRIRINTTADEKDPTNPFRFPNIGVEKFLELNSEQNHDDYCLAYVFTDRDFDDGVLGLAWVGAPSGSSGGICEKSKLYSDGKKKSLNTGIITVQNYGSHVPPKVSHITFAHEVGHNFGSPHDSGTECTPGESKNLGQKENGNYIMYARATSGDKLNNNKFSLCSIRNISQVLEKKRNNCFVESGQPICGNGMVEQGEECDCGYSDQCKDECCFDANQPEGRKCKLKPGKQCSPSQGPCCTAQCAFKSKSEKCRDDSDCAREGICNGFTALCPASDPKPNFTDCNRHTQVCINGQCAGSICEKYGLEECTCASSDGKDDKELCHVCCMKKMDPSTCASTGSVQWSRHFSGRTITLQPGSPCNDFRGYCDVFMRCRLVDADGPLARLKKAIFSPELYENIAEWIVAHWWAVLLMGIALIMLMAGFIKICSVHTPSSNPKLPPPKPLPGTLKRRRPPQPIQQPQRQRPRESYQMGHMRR
Protocol: All common chemicals were purchased from Sigma.
Both assays followed the same general protocol. […] After 30 min incubation at RT, the reactions were started by addition of 2.5 µL of 2× solutions of substrate (R&D Systems cat#: ES010, Mca-KPLGL-Dpa-AR-NH2, 20 µM). […] All compounds were tested in 10-point, 1:3 serial dilutions dose-response format starting with highest concentration of 100 µM. IC50 values were determined using non-linear regression analysis using the GraphPad Prism 8.0 suite of programs.

meprin α [1] = target: T2, meprin α (Homo sapiens, UniProt Q16819); experiment: Kinetic parameters of meprin α mediated proteolysis in the presence of SR24717; format: biochemical
T2 construct: Strep-tag; made in house; host or cells: BTI-TN-5B1-4 insect cells (baculovirus, amplified in Sf9)
T2 sequence (Q16819 66-746): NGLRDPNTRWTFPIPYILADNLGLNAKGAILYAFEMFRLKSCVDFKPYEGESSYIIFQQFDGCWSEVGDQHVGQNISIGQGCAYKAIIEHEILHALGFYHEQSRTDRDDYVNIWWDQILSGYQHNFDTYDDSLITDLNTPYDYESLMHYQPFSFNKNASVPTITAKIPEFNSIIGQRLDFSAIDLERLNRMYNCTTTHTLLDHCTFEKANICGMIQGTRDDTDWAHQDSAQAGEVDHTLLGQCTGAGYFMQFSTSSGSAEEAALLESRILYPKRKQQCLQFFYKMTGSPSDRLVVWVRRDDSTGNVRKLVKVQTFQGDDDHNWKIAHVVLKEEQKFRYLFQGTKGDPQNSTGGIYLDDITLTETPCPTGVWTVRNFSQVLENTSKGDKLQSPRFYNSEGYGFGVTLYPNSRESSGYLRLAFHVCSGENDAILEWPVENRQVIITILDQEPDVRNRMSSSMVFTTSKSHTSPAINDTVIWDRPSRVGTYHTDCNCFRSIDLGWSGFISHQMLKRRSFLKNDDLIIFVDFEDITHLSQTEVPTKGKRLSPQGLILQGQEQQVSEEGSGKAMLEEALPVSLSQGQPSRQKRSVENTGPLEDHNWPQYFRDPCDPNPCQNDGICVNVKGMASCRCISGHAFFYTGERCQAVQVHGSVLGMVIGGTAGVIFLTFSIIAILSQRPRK
Protocol: Substrate stock solutions were prepared at various concentrations in HTS assay buffer (50 mM HEPES, 0.01% Brij-35, pH 7.5). Assays were conducted by incubating a range of substrate (2–50 µM) and SR24717 concentrations (0–1000 nM) with 1.3 nM meprin α at 25 °C. Fluorescence was measured on a multimode microplate reader Synergy H1 (Biotek Instruments, Winooski, VT, USA) using λexcitation = 324 nm and λemission = 393 nm. Rates of hydrolysis were obtained from plots of fluorescence versus time, using data points from only the linear portion of the hydrolysis curve. The slope from these plots was divided by the fluorescence change corresponding to complete hydrolysis and then multiplied by the substrate concentration to obtain rates of hydrolysis in units of μM/s. Kinetic parameters were calculated by non-linear regression analysis using the GraphPad Prism 8.0 suite of programs.

[2] = tested on: WM266-4 (skin melanoma), HEK293 (kidney), and BJ (skin fibroblasts) cells; experiment: Cell viability, CellTiter Glo assay after 72 h treatment; format: cell-based
Protocol: (§1) Figure 6 Characterization of SR24717 for effects on cell viability and cytotoxicity. (A) Effect of SR24717 on viability of WM266-4 (skin melanoma), HEK293 (kidney), and BJ (skin fibroblasts) cells. CellTiter Glo™ assay (Promega) was used after 72 h treatment. (B) Effect of SR24717 on viability of HEK293 (kidney) and BJ (skin fibroblasts) cells. The CellTox Green™ assay (Promega) was used. All experiments performed as 10-point 3-fold concentration-response curves in triplicate.
Test compounds were solubilized in 100% DMSO and added to polypropylene 384-well plates (Greiner cat# 781280). 1250 of BJ skin fibroblasts or primary melanocytes were plated in 384-well plates in 8 µL of serum-free media (HybriCare for BT474, EMEM for HEK293). […] Luminescence was recorded using a Biotek Synergy H1 multimode microplate reader. Viability was expressed as a percentage relative to wells containing media only (0%) and wells containing cells treated with DMSO only (100%). Three parameters were calculated on a per-plate basis: (a) the signal-to-background ratio (S/B), (b) the coefficient for variation (CV; CV = (standard deviation/mean) × 100) for all compound test wells, and (c) the Z’-factor. IC50 values were calculated by fitting normalized data to sigmoidal log vs. response equation utilizing non-linear regression analysis from GraphPad Prism 8.

[3] = tested on: HEK293 (kidney) and BJ (skin fibroblasts) cells; experiment: Cytotoxicity, CellTox Green assay; format: cell-based
Protocol: as §1

meprin α [4] = target: T2, meprin α; experiment: Meprin α assay in a 384-well plate (fluorogenic substrate Mca-YVADAPK-K(Dnp)); format: biochemical; details: pre-incubation with meprin α for 0–3 h

COc1cc(OC)nc(SCc2nnc(SCC(=O)NO)n2-c2ccc(N(C)C)cc2)n1 [SR24717]
IC50 (ADAM10): > 100000 nM | Ki (meprin α [1]; global fit to the competitive model of inhibition): 301 nM | mode of inhibition of meprin α (meprin α [1]; varying substrate concentration): competitive | concentration at which negative effects on viability were observed [2]: 100 µM | concentration at which cytotoxicity was observed [3]: 100 µM | time dependence of inhibition: change in IC50 values (meprin α [4]): no change in IC50 values
